Assay results as given in patent US20240383875A1, “Benzimidazole Pyridine Derivatives” (Hoffmann-La Roche Inc., priority 2022, published 2024).

What was measured:
Format in all cases: biochemical
SIK3 = SIK3 (Homo sapiens, UniProt Q9Y2K2); experiment: Enzymatic activity assay SIK3, RapidFire mass spectrometry (phosphorylation of CHK-peptide); conditions: RapidFire MS, inhibition of SIK3; read-out: SIK3 RF IC50
Procedure, shortened: (§1)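 Human SIK1/2/3, 5/0.5/1.5 nM; 12.5 mM HEPES pH 7.0, 10 mM Mg acetate, 0.005% BSA. 30 min cpd pre-inc, + CHK-peptide (10 μM soln) + ATP (100 μM soln), 45 min RT. Formic acid stop; RF-MS phospho ratio; IC50.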

SIK1 = SIK1 (Homo sapiens, UniProt P57059); experiment: Enzymatic activity assay SIK1, RapidFire mass spectrometry (phosphorylation of CHK-peptide); conditions: RapidFire MS, inhibition of SIK1; read-out: SIK1 RF IC50
Procedure, shortened: as §1

SIK2 = SIK2 (Homo sapiens, UniProt Q9H0K1); experiment: Enzymatic activity assay SIK2, RapidFire mass spectrometry (phosphorylation of CHK-peptide); conditions: RapidFire MS, inhibition of SIK2; read-out: SIK2 RF IC50
Procedure, shortened: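 Read-out is the summed phospho-species fraction of CHK-peptide by RapidFire mass spectrometry, normalized between DMSO and 1 μM YKL-05-099. The reaction used 0.5 nM SIK2, 100 μM ATP and 10 μM peptide solutions in HEPES pH 7.0/10 mM magnesium acetate for 45 min at ambient temperature.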

Chain of SIK1 (P57059 whole entry): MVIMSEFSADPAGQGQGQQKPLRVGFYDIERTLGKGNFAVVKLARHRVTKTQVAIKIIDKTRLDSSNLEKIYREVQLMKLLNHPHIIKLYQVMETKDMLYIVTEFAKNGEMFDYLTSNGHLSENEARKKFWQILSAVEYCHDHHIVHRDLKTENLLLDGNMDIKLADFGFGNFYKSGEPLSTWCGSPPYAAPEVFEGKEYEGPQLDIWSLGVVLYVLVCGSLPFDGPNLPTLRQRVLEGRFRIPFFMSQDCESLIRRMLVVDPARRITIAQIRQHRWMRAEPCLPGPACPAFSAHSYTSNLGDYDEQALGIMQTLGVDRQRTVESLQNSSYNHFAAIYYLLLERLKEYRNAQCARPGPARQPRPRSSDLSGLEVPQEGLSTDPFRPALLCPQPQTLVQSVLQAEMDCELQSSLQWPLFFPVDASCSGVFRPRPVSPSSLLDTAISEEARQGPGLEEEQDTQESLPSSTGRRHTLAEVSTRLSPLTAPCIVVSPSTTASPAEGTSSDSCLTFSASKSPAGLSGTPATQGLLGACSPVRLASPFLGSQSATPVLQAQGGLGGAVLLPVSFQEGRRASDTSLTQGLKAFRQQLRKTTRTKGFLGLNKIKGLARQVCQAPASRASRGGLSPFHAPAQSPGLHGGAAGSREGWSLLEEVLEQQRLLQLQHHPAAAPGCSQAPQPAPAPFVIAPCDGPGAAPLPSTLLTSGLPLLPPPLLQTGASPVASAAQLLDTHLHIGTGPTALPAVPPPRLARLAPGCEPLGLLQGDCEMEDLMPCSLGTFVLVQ
Chain of SIK2 (Q9H0K1 whole entry): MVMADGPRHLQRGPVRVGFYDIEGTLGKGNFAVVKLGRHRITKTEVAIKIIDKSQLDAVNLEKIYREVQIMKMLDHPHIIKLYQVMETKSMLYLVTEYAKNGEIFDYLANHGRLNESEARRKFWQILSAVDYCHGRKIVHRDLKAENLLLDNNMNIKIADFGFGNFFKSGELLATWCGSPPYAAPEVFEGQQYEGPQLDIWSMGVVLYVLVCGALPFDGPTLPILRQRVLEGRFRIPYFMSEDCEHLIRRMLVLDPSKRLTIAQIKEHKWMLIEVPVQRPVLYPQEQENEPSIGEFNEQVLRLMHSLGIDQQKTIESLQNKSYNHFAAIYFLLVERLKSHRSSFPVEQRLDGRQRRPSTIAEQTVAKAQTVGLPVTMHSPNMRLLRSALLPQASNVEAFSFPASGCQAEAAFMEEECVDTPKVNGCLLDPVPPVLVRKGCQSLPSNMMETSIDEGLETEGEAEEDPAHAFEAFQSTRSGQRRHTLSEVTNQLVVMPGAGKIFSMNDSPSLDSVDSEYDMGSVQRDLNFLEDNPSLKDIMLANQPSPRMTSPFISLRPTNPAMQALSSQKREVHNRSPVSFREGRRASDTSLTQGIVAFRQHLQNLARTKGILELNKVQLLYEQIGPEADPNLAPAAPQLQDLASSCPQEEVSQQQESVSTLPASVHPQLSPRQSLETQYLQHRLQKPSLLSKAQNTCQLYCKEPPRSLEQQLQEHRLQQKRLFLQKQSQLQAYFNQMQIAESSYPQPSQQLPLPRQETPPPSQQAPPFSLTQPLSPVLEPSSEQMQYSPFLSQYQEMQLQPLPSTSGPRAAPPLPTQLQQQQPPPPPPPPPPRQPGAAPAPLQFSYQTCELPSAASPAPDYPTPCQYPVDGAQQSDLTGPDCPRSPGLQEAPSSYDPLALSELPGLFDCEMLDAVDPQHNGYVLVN
Chain of SIK3 (Q9Y2K2 whole entry): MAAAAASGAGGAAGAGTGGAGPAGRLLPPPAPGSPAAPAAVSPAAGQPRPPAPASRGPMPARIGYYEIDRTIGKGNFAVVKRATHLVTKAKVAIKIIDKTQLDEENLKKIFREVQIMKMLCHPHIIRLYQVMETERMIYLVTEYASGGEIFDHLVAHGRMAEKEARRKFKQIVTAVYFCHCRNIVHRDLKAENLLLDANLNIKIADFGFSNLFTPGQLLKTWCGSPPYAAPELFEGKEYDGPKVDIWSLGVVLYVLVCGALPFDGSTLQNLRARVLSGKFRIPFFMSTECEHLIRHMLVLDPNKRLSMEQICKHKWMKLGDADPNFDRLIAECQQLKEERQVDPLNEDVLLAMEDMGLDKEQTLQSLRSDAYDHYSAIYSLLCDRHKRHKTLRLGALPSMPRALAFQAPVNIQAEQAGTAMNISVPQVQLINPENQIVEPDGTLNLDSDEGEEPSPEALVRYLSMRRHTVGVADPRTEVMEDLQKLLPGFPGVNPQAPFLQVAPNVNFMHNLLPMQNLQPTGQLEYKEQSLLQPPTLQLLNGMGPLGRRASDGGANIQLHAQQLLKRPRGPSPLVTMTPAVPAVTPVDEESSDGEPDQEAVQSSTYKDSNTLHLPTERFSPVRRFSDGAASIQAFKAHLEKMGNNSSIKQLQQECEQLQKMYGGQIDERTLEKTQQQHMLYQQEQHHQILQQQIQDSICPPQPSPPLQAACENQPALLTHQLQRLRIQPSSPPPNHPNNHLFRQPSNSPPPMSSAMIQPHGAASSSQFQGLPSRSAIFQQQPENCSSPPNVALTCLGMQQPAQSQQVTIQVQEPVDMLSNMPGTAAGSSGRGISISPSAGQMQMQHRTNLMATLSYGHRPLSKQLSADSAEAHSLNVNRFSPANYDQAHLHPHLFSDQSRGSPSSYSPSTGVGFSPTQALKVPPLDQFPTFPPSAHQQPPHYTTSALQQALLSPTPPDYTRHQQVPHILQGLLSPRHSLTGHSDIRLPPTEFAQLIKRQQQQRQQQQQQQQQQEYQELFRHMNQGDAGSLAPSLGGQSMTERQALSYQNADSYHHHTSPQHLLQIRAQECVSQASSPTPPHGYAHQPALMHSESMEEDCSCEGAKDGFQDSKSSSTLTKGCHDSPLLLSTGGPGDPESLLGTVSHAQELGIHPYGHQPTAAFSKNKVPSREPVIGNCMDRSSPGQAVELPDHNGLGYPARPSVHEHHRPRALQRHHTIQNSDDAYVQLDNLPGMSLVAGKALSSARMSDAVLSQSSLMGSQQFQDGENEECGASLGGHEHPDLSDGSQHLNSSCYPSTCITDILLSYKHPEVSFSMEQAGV

Row | IC50 (SIK3) | IC50 (SIK1) | IC50 (SIK2) | SMILES
1 | 0.4 nM | 58 nM | 0.4 nM | Cc1ccc(Nc2ccc3c(c2)ncn3-c2ccc(C(C)O)c(-c3nn(CC(F)(F)F)nc3C)n2)nn1 (stereo not drawn) [Example 308, 1-[6-[5-[(6-methylpyridazin-3-yl)amino]benzimidazol-1-yl]-2-[5-methyl-2-(2,2,2-trifluoroethyl)triazol-4-yl]-3-pyridyl]ethanol]
2 | 4.5 nM | 10 nM | 2 nM | Cc1cc(C#N)nn1-c1nc(-n2cnc3cc(-c4cnc(N5CCCC5=O)o4)ccc32)ccc1C(C)O (stereo not drawn) [Example 392, 1-[3-(1-hydroxyethyl)-6-[5-[2-(2-oxopyrrolidin-1-yl)oxazol-5-yl]benzimidazol-1-yl]-2-pyridyl]-5-methyl-pyrazole-3-carbonitrile]
3 | 2.4 nM | 966 nM | 16.3 nM | Cc1ccc(Nc2ccc3c(c2)ncn3-c2ccc(C(C)O)c(N3CC4CC3CC4(F)F)n2)nn1 (stereo not drawn) [Example 322, 1-[2-(5,5-difluoro-2-azabicyclo[2.2.1]heptan-2-yl)-6-[5-[(6-methylpyridazin-3-yl)amino]benzimidazol-1-yl]-3-pyridyl]ethanol]
4 | 1680 nM | 508 nM | 377 nM | COc1cc2ncn(-c3ccc(CO)c(NCCCCO)n3)c2cc1OC [Example 34, 4-((6-(5,6-Dimethoxy-1H-benzo[d]imidazol-1-yl)-3-(hydroxymethyl)pyridin-2-yl)amino)butan-1-ol]
5 | 2.9 nM | 532 nM | 4.7 nM | COC(C)Cn1ncc(-c2nc(-n3cnc4cc(Nc5ccc(C)nn5)ccc43)ccc2C(C)O)c1C (stereo not drawn) [Example 279, 1-[2-[1-(2-methoxypropyl)-5-methyl-pyrazol-4-yl]-6-[5-[(6-methylpyridazin-3-yl)amino]benzimidazol-1-yl]-3-pyridyl]ethanol]
6 | 43.2 nM | 47 nM | 31.5 nM | Cc1nnc(Nc2cc3ncn(-c4ccc(C(C)O)c(-n5nc(C#N)cc5C)n4)c3cc2F)o1 (stereo not drawn) [Example 377, 1-[6-[6-fluoro-5-[(5-methyl-1,3,4-oxadiazol-2-yl)amino]benzimidazol-1-yl]-3-(1-hydroxyethyl)-2-pyridyl]-5-methyl-pyrazole-3-carbonitrile]
7 | 152 nM | 93 nM | 34.6 nM | COc1cc2ncn(-c3ccc(C(C)O)c(-n4ccc(C(F)(F)F)n4)n3)c2cc1OC (stereo not drawn) [Example 63, 1-[6-(5,6-Dimethoxybenzimidazol-1-yl)-2-[3-(trifluoromethyl)pyrazol-1-yl]-3-pyridyl]ethanol]
8 | 3.5 nM | 1430 nM | 20.7 nM | COc1cc(C)n(-c2nc(-n3cnc4cc(Nc5ccc(C)nn5)ccc43)ccc2C(C)O)n1 (stereo not drawn) [Example 214, 1-[2-(3-Methoxy-5-methyl-pyrazol-1-yl)-6-[5-[(6-methylpyridazin-3-yl)amino]benzimidazol-1-yl]-3-pyridyl]ethanol; formic acid]
9 | 11.7 nM | 8 nM | 2.9 nM | Cc1cc(C(F)F)nn1-c1nc(-n2cnc3cc(F)c(Nc4ccc(F)c(F)c4F)cc32)ccc1C(C)O (stereo not drawn) [Example 364, 1-[2-[3-(difluoromethyl)-5-methyl-pyrazol-1-yl]-6-[5-fluoro-6-(2,3,4-trifluoroanilino)benzimidazol-1-yl]-3-pyridyl]ethanol]
10 | 7 nM | 2120 nM | 6.7 nM | Cc1ccc(Nc2cc3ncn(-c4ccc(CO)c(-n5nc(C(F)F)cc5C)n4)c3cc2F)nn1 [Example 319, [2-[3-(difluoromethyl)-5-methyl-pyrazol-1-yl]-6-[6-fluoro-5-[(6-methylpyridazin-3-yl)amino]benzimidazol-1-yl]-3-pyridyl]methanol]
11 | 1.2 nM | 663 nM | 10.3 nM | Cc1ccc(Nc2ccc3c(c2)ncn3-c2ccc(C(O)C(F)(F)F)c(-n3nc(C#N)cc3C)n2)nn1 (stereo not drawn) [Example 148, 5-Methyl-1-[6-[5-[(6-methylpyridazin-3-yl)amino]benzimidazol-1-yl]-3-(2,2,2-trifluoro-1-hydroxy-ethyl)-2-pyridyl]pyrazole-3-carbonitrile]
12 | 6.3 nM | 1440 nM | 38.4 nM | Cc1ccc(Oc2ccc3c(c2)ncn3-c2ccc(C(C)O)c(-n3nc(C#N)cc3C)n2)nn1 (stereo not drawn) [Example 75, 1-[3-(1-Hydroxyethyl)-6-[5-(6-methylpyridazin-3-yl)oxybenzimidazol-1-yl]-2-pyridyl]-5-methyl-pyrazole-3-carbonitrile]
13 | 10000 nM | 27000 nM | 6340 nM | Cc1ccc(Nc2ccc3ncn(-c4ccc(C(C)O)c(-n5cc(C#N)c(C)n5)n4)c3c2)nn1 (stereo not drawn) [Example 178, 1-[3-(1-Hydroxyethyl)-6-[6-[(6-methylpyridazin-3-yl)amino]benzimidazol-1-yl]-2-pyridyl]-3-methyl-pyrazole-4-carbonitrile]
14 | 4 nM | 196 nM | 3.1 nM | Cc1ccc(Nc2cc3ncn(-c4ccc(C(C)O)c(-n5nc(C#N)cc5C)n4)c3cc2OC2CCNC2)nn1 (stereo not drawn) [Example 192, 1-[3-(1-Hydroxyethyl)-6-[5-[(6-methylpyridazin-3-yl)amino]-6-pyrrolidin-3-yloxy-benzimidazol-1-yl]-2-pyridyl]-5-methyl-pyrazole-3-carbonitrile]
15 | 66.1 nM | 450 nM | 181 nM | Cc1cc(C#N)nn1-c1nc(-n2cnc3cc(NC4CC(=O)N(C)C4)ccc32)ccc1C(C)O (stereo not drawn) [Example 161, 1-[3-(1-Hydroxyethyl)-6-[5-[(5-keto-1-methyl-pyrrolidin-3-yl)amino]benzimidazol-1-yl]-2-pyridyl]-5-methyl-pyrazole-3-carbonitrile]
16 | 80.2 nM | 215 nM | 41.3 nM | Cc1ccc(Nc2cc3ncn(-c4ccc([C@@H](C)O)c(-n5nc(OC(F)F)cc5C)n4)c3cc2OC2COC2)nn1 [Example 384, (1R)-1-[2-[3-(difluoromethoxy)-5-methyl-pyrazol-1-yl]-6-[5-[(6-methylpyridazin-3-yl)amino]-6-(oxetan-3-yloxy)benzimidazol-1-yl]-3-pyridyl]ethanol]
17 | 17.9 nM | 42 nM | 20.3 nM | Cc1ccc(-c2ccc3c(c2)ncn3-c2ccc(C(C)O)c(-n3nc(C#N)cc3C)n2)nn1 (stereo not drawn) [Example 340, 1-[3-(1-hydroxyethyl)-6-[5-(6-methylpyridazin-3-yl)benzimidazol-1-yl]-2-pyridyl]-5-methyl-pyrazole-3-carbonitrile]
18 | 3.6 nM | 1220 nM | 8.5 nM | Cc1cc(C(F)F)nn1-c1nc(-n2cnc3cc(Nc4ccc(Cl)nn4)c(F)cc32)ccc1C(C)O (stereo not drawn) [Example 372, 1-[6-[5-[(6-chloropyridazin-3-yl)amino]-6-fluoro-benzimidazol-1-yl]-2-[3-(difluoromethyl)-5-methyl-pyrazol-1-yl]-3-pyridyl]ethanol]
19 | 15.5 nM | 457 nM | 13.7 nM | Cc1ccc(Nc2ccc3c(c2)ncn3-c2ccc(C(C)O)c(N3CC[C@H]4NCC[C@@H]43)n2)nn1 (mixture of isomers) [Example 127, 1-[6-[5-[(6-Methylpyridazin-3-yl)amino]benzimidazol-1-yl]-2-[rac-trans-2,3,3a,5,6,6a-hexahydro-1H-pyrrolo[3,2-b]pyrrol-4-yl]-3-pyridyl]ethanol]
20 | 3.6 nM | 1200 nM | 22.4 nM | Cc1ccc(Nc2ccc3c(c2)ncn3-c2ccc(C(C)O)c(N3CCC(C)(C#N)C3)n2)nn1 (stereo not drawn) [Example 121, 1-[3-(1-Hydroxyethyl)-6-[5-[(6-methylpyridazin-3-yl)amino]benzimidazol-1-yl]-2-pyridyl]-3-methyl-pyrrolidine-3-carbonitrile]
21 | 9.3 nM | 3340 nM | 71.5 nM | Cc1ccc(Nc2ccc3c(c2)ncn3-c2ccc(C(C)O)c(N3CCNC(C(F)(F)F)C3)n2)nn1 (stereo not drawn) [Example 331, 1-[6-[5-[(6-methylpyridazin-3-yl)amino]benzimidazol-1-yl]-2-[3-(trifluoromethyl)piperazin-1-yl]-3-pyridyl]ethanol]
22 | 4.7 nM | 186 nM | 3.9 nM | Cc1ccc(Nc2cc3ncn(-c4ccc(C(C)O)c(-n5nc(C#N)cc5C)n4)c3cc2OCCN(C)C)nn1 (stereo not drawn) [Example 189, 1-[6-[6-[2-(Dimethylamino)ethoxy]-5-[(6-methylpyridazin-3-yl)amino]benzimidazol-1-yl]-3-(1-hydroxyethyl)-2-pyridyl]-5-methyl-pyrazole-3-carbonitrile]
23 | 7470 nM | 13400 nM | 6080 nM | COc1cc2ncn(-c3ccc([C@H](C)O)c(-c4ccccc4C(N)=O)n3)c2cc1OC [Example 35, (S)-2-(6-(5,6-Dimethoxy-1H-benzo[d]imidazol-1-yl)-3-(l-hydroxyethyl)pyridin-2-yl)benzamide]
24 | 1290 nM | 426 nM | 345 nM | CCOc1cc(C)n(-c2nc(-n3cnc4ccc(Nc5ccc(C)nn5)cc43)ccc2C(C)O)n1 (stereo not drawn) [Example 134, 1-[2-(3-Ethoxy-5-methyl-pyrazol-1-yl)-6-[6-[(6-methylpyridazin-3-yl)amino]benzimidazol-1-yl]-3-pyridyl]ethanol]
25 | 21.7 nM | 79 nM | 32.5 nM | Cc1cc(C#N)nn1-c1nc(-n2cnc3cc(Nc4ccc(F)c(F)c4F)c(F)cc32)ccc1C(C)O (stereo not drawn) [Example 378, 1-[6-[6-fluoro-5-(2,3,4-trifluoroanilino)benzimidazol-1-yl]-3-(1-hydroxyethyl)-2-pyridyl]-5-methyl-pyrazole-3-carbonitrile]
